# Assay results taken from US8241863B2, “Identification of an evolutionarily conserved pathway mediating transrepression of inflammatory response genes by nuclear receptors” (The Regents of the University of California, priority 2005, dated 2012).
# System: PPARγ-sensitive genes
# Experiment: Microarray of primary macrophages transfected with control or NCoR siRNA
# Type: cell-based
# Conditions: NCoR siRNA vs control siRNA
# Procedure: To determine how widely the SUMOylation/NCoR-dependent pathway is utilized by PPARγ to repress inflammatory response genes, microarray studies were performed in primary macrophages transfected with control siRNAs or siRNAs directed against NCoR mRNA.
smiles,measurement,value
CN(CCOc1ccc(CC2SC(=O)NC2=O)cc1)c1ccccn1 (stereo not shown) [rosiglitazone],PPARγ-sensitive genes whose repression by ligand was abolished by knockdown of NCoR,80%
